{"source": "paper PMC9013686", "about": "“Inter-individual variation in chlorpyrifos toxicokinetics characterized by physiologically based kinetic (PBK) and Monte Carlo simulation comparing human liver microsome and Supersome™ cytochromes P450 (CYP)-specific kinetic data as model input” (Archives of Toxicology, 2022)", "key": {"CYP3A4 [1]": {"target": "T1, CYP3A4 (Homo sapiens, UniProt P08684)", "T1 sequence (P08684 2-503 limits assumed)": "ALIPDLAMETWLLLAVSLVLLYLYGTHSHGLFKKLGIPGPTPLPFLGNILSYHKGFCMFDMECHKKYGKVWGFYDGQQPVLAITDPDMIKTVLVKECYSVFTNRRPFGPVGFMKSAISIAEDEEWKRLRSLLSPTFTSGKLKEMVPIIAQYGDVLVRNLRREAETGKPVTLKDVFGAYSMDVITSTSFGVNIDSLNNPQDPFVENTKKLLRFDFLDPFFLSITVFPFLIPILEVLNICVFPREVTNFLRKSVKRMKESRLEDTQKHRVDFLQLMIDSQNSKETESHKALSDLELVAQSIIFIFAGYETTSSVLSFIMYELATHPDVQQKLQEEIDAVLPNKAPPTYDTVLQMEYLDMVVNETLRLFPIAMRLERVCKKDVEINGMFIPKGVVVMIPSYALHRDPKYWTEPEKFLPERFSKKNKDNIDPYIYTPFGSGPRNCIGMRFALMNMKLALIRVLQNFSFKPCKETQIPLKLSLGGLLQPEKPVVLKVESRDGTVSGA", "experiment": "Supersome CYP3A4 kinetic incubations", "format": "in vitro ADME", "parameters": "purchased Corning (Amsterdam, The Netherlands); host or cells: baculovirus-transfected insect cells", "conditions": "for Scaled Vmax(app): CYP3A4 scaled to whole liver by Eq. 3; for Vmax (app) / Km: Supersome CYP3A4", "method": "(§1) The final incubations were carried out in 50 mM Tris–HCl (pH 7.4) containing 5 mM MgCl2, 1 mM EDTA (as an A-esterase PON1 inhibitor) (Bizoń and Milnerowicz [2018]), 50 µM iso-OMPA (as a B-esterases inhibitor) (Lane et al. [2006]), Supersome™ isoform (at final concentration of 0.005 nmol CYP/ml for 1A2, 0.001 nmol CYP/ml for 2B6, 0.01 nmol CYP/ml for 2C19, and 0.01 nmol CYP/ml for 3A4) and CPF at different final concentrations (0.05, 0.1, 0.25, 0.5, 1, 5 and 10 µM for 1A2, 0.05, 0.1, 0.25, 0.5, 1, 5 10 and 25 µM for 2B6, 1, 2.5, 5, 10, 25 and 50 µM for 2C19, and 0.5, 1, 2.5, 5, 10, 25 and 50 µM for 3A4), which were added from 100 times concentrated stock solutions in ACN. After 1 min preincubation in a 37 °C water bath, 5 µl NADPH (final concentration 1 mM) was added to the incubation system. Control incubations were performed by replacing NADPH with the same amount of Tris–HCl (pH 7.4). The total volume of the incubation mixtures was 200 µl. The incubations lasted for 2 min at 37 °C and were terminated by addition of 50 µl ice cold ACN and subsquently put on ice. After that, samples were centrifuged at 16,000 g (4 ℃) for 5 min and supernatants of samples were separated into two equal portions for Ultra-Performance Liquid Chromatography-Photodiode Array (UPLC-PDA) and Liquid Chromatography Mass Spectrometry (LC–MS/MS) analysis, respectively.\n(§2) To normalize for differences in intrinsic CYP activity between Supersome™ and pooled HLMs and enable scaling of the activities to the in vivo situation, CYP-specific ISEF values need to be established. […] The incubation method was similar as used for the CPF kinetic incubation assay described above, except that certain incubation conditions were replaced by the conditions listed in Table 1. The samples obtained were analyzed by UPLC-PDA for acetaminophen, 4-hydroxymephenytoin, and 6β-hydroxytestosterone formation catalyzed by 1A2, 2C19 and 3A4, or LC–MS/MS for (±)-hydroxybupropion formation catalyzed by 2B6.\n(§3) As mentioned before, the in vitro apparent kinetic parameters (Vmax and Km) for pathway 1 and pathway 2 in the HLM-based approach, and pathway 3 in both approaches were all obtained directly from reported studies using pooled HLMs (Buratti et al. [2003]; Sams et al. [2004]; Zhao et al. [2019]). Therefore, no extra calculations were required to define these parameters. The kinetic parameters for the ISEF calculation, pathway 1 and 2 in the Supersome™-based approach, and pathway 4 in both approaches (25 individuals) were all obtained by fitting the experimental data to the Michaelis–Menten model using GraphPad (GraphPad Prism 5.0 software, San Diego, CA, USA). It should be noted that the kinetic parameters for pathway 4 used in the two approaches were calculated as mean of the kinetic parameters (Vmax and Km) obtained using 25 individual HP samples (with correction for total protein concentration of each plasma sample).\n(§4) The in vivo Kmi values were assumed to be equal to the apparent Kmi(app) values (µM) obtained in the in vitro incubations, while the in vivo Vmaxi for each CYP isoform was derived from their corresponding apparent CYP isoform Vmaxi(app) (pmol/min/pmolCYP) using Eq. 3:3 Vmaxi=Vmaxiapp×CYPiabundance×ISEF×60×MPL×1000×VL/1,000,000,"}, "CYP2C19": {"target": "CYP2C19 (Homo sapiens, UniProt P33261)", "sequence (P33261 whole entry)": "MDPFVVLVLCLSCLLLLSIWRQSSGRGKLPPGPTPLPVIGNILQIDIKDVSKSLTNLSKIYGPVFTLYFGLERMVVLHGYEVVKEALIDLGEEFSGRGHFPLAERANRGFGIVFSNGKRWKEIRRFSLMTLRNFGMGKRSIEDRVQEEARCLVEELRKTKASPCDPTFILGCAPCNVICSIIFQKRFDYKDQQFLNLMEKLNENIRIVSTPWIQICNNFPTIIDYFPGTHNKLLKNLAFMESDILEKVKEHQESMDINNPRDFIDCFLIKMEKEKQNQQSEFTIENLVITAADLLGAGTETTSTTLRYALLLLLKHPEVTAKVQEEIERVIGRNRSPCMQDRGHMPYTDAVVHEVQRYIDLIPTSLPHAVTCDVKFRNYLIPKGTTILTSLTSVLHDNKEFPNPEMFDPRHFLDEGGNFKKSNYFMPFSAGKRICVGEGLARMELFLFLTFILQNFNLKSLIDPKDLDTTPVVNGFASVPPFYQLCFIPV", "experiment": "Supersome CYP2C19 kinetic incubations", "format": "in vitro ADME", "parameters": "purchased Corning (Amsterdam, The Netherlands); host or cells: baculovirus-transfected insect cells", "conditions": "for Scaled Vmax(app): CYP2C19 scaled to whole liver by Eq. 3; for Vmax (app) / Km: Supersome CYP2C19; for Km: human, recombinant CYP2C19 Supersomes, pH 7.4, Km(app)", "method": "as §1, §2, §3, §4"}, "RBC AChE": {"system": "RBC AChE", "conditions": "ref USEPA (2014); cited from earlier work"}, "pooled HLMs (CYPs)": {"system": "pooled HLMs (CYPs)", "conditions": "cited from earlier work"}, "CYP3A4 [2]": {"target": "T1, CYP3A4", "conditions": "Supersome CYP3A4; bioactivation of CPF; ref Foxenberg et al. ([2007]); cited from earlier work"}, "[3]": {"conditions": "cited from earlier work"}, "CYP2B6": {"target": "T2, CYP2B6 (Homo sapiens, UniProt P20813)", "T2 sequence (P20813 1-491)": "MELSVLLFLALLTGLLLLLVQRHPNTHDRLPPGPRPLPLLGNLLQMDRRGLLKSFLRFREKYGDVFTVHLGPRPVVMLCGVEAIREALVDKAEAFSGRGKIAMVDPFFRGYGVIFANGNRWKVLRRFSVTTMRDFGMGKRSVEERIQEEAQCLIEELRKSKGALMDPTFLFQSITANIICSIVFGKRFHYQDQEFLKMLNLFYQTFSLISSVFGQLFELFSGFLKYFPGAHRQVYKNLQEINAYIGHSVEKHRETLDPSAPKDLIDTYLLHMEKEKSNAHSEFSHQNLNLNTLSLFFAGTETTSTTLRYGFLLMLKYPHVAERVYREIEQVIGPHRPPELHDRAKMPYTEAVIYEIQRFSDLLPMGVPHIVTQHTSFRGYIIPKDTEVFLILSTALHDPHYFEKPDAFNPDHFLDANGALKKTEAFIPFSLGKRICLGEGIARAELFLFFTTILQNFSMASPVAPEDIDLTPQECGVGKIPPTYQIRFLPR", "conditions": "bioactivation of CPF, ref Foxenberg et al. [2007]; cited from earlier work"}, "[4]": {"conditions": "Pathway 2 (CPF to TCPy), pooled HLMs, CPF 3–100 µM, ref Sams et al. ([2004])"}}, "note": "Several values for one entry are separate records, joined by “and”; a condition that tells them apart may be missing. Identical values can stand only once. Like-named read-outs stand apart in the source and are kept apart here."}
{"smiles": "CCOP(=S)(OCC)Oc1nc(Cl)c(Cl)cc1Cl", "note": "[CPF, Chlorpyrifos]", "values": [{"measurement": "Scaled Vmax(app)", "setting": "CYP3A4 [1]; Pathway 1 (CPF to CPO)", "value": 910.77, "unit": "µmol/h"}, {"measurement": "Vmax (app)", "setting": "CYP3A4 [1]; Pathway 1 (CPF to CPO)", "value": 17.78, "unit": "pmol/min/pmolCYP"}, {"measurement": "Scaled Vmax(app)", "setting": "CYP3A4 [1]; Pathway 2 (CPF to TCPy)", "value": 1222.21, "unit": "µmol/h"}, {"measurement": "Vmax (app)", "setting": "CYP3A4 [1]; Pathway 2 (CPF to TCPy)", "value": 23.86, "unit": "pmol/min/pmolCYP"}, {"measurement": "Km", "setting": "CYP3A4 [1]; human, recombinant CYP3A4 Supersomes, pH 7.4, Km(app), Pathway 1 (bioactivation of CPF to CPO)", "value": 29.8, "unit": "µM"}, {"measurement": "Km", "setting": "CYP3A4 [1]; human, recombinant CYP3A4 Supersomes, pH 7.4, Km(app), Pathway 2 (detoxification of CPF to TCPy)", "value": 18.1, "unit": "µM"}, {"measurement": "Km", "setting": "CYP3A4 [1]; read-out: Km(app), Pathway 1 (bioactivation of CPF to CPO)", "value": 29.8, "unit": "µM"}, {"measurement": "Scaled Vmax(app)", "setting": "CYP2C19; Pathway 1 (CPF to CPO)", "value": 10.81, "unit": "µmol/h"}, {"measurement": "Vmax (app)", "setting": "CYP2C19; Pathway 1 (CPF to CPO)", "value": 2.74, "unit": "pmol/min/pmolCYP"}, {"measurement": "Scaled Vmax(app)", "setting": "CYP2C19; Pathway 2 (CPF to TCPy)", "value": 69.06, "unit": "µmol/h"}, {"measurement": "Vmax (app)", "setting": "CYP2C19; Pathway 2 (CPF to TCPy)", "value": 17.51, "unit": "pmol/min/pmolCYP"}, {"measurement": "Km", "setting": "CYP2C19; Pathway 1 (bioactivation of CPF to CPO)", "value": 1.89, "unit": "µM"}, {"measurement": "Km", "setting": "CYP2C19; Pathway 2 (detoxification of CPF to TCPy)", "value": 1.37, "unit": "µM"}, {"measurement": "BMDL10 (EPA, derived from human PBPK-PD model)", "setting": "RBC AChE", "value": 0.47, "unit": "mg/kg bw"}, {"measurement": "Vmax (high affinity)", "setting": "pooled HLMs (CYPs); Pathway 1 (CPF to CPO), pooled HLMs, CPF 0.02–10 µM, ref Buratti et al. ([2003])", "value": "0.275 nmol/min/mg microsomal protein"}, {"measurement": "Vmax (low affinity)", "setting": "pooled HLMs (CYPs); Pathway 1 (CPF to CPO), pooled HLMs, CPF 3–100 µM, ref Sams et al. ([2004])", "value": "0.353 nmol/min/mg microsomal protein"}, {"measurement": "Km", "setting": "pooled HLMs (CYPs); [4]", "value": 12, "unit": "µM"}, {"measurement": "Vmax", "setting": "pooled HLMs (CYPs); [4]", "value": "0.653 nmol/min/mg microsomal protein"}, {"measurement": "Km", "setting": "pooled HLMs (CYPs); read-out: Km (high affinity), Pathway 1 (CPF to CPO), pooled HLMs, CPF 0.02–10 µM, ref Buratti et al. ([2003])", "value": 0.27, "unit": "µM"}, {"measurement": "Km", "setting": "pooled HLMs (CYPs); read-out: Km (low affinity), apparent Km in pooled HLMs, Pathway 1 (CPF to CPO), CPF 3–100 µM, ref Sams et al. ([2004])", "value": 29.8, "unit": "µM"}, {"measurement": "Km", "setting": "CYP3A4 [2]", "value": 27.3, "unit": "µM"}, {"measurement": "ka (absorption rate constant)", "setting": "[3]; PBK model input, mean, ref Bouchard et al. ([2005])", "value": 0.46, "unit": "h⁻¹"}, {"measurement": "fa (fractional absorption), mean", "setting": "[3]; mean of the reported fa values, ref Timchalk et al. ([2002]), Nolan et al. ([1984])", "value": "0.462 and 0.46"}, {"measurement": "fa (fractional absorption)", "setting": "[3]; ref Nolan et al. ([1984])", "value": 0.7}, {"measurement": "fa (fractional absorption)", "setting": "[3]; ref Timchalk et al. ([2002])", "value": 0.224}, {"measurement": "Km", "setting": "CYP2B6", "value": 0.81, "unit": "µM"}]}
